Biological target: TC-PTP (Homo sapiens (Human), UniProt P17706)
Test: Enzyme assay for TC-PTP
Format: biochemical
Details: inhibition of TC-PTP enzymatic activity
Method: 1) Enzyme Assay for TC-PTP
The assay was carried out at room temperature in 96 well plates. The reaction mixture in 170 μl contained 50 mM Bis-Tris (pH=6.3), 2 mM EDTA, 5 mM N,N′-dimethyl-N,N′bis(mercaptoacetyl)hydrazine (DMH) and 10 μM fluorescein diphosphare (FDP) or 6,8-difluoro-4-methylumbelliferyl phosphate (DiFMUP). 10 μl of 10 concentrations (serial dilution) of the test compound (inhibitor) dissolved in DMSO or DMSO alone for control was added to each well and the plate was mixed for 2 min. The reaction was initiated by adding 20 μl of diluted TC-PTP (50 nM for FDP, 0.5 nM for DiFMUP in 50 mM Bis/Tris (pH=6.3), 2 mM EDTA, 5 mM DMH, 20% glycerol and 0.01% Triton X-100. The phosphatase activity was followed by monitoring the appearance of the fluorescent product fluorescein monophosphate (FMP) or 6,8-difluoro-7-hydroxyl-4-coumarin (DiFMU) continuously for 15-30 min, using the Spectromax Gemini fluorescent plate reader ([…]) with excitation of 440 nm and emission at 530 nm (cutoff filter at 525 nm) for FDP and excitation at 360 nm and emission at 450 nm (cutoff filter at 435 nm) for DiFMUP. All the assays were done at least in duplicate. The initial rate of FMP or DiFMU formation is plotted against the concentration of inhibitor and the data was fitted to 4-parameter equation and the inflection point of the fit is the IC50.

TC-PTP, sequence (P17706 whole entry, species assumed): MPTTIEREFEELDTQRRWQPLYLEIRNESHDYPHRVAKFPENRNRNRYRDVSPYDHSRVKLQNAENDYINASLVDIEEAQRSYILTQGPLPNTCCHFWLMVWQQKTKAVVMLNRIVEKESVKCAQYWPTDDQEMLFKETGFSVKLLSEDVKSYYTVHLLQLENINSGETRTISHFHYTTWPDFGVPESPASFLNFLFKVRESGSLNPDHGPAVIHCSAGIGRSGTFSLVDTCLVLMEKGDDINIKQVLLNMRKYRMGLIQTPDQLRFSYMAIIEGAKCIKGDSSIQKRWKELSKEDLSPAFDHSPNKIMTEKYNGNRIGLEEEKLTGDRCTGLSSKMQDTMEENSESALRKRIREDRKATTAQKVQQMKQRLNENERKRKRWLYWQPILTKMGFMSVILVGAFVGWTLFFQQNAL

[(3-BROMO-7-CYANO-2-NAPHTHYL)(DIFLUORO)METHYL]PHOSPHONATE [Ex. 10]
IC50: 490 nM
